From patent US20230212549A1, “COMPOUNDS COMPRISING A […] LIGAND AND USE THEREOF” (priority 2021, published 2023)
Numbered stars: 1 amine (or outer) side, 2 acyl side, 3 side chain; on linkers, the order of the positions; unused ones are H or OH. Bridge positions count the residues as written; N and C are the ends. Square brackets hold non-standard residues; d marks the D form. Peptide text beside a SMILES is read from it. * marks the point of attachment. X17 = NC(=O)[C@H](CCCCNC(=O)CN1CCN(CC(=O)O)CCN(CC(=O)O)CCN(CC(=O)O)CC1)NC(=O)CCC(=O)NCCCOCCOCCOCCCN*; TBMB(SCH2CH2NH-DOTA) = O=C(O)CN1CCN(CC(=O)O)CCN(CC(=O)NCCSCc2cc(C[*:1])cc(C[*:2])c2)CCN(CC(=O)O)CC1; 1Nal = N[C@@H](Cc1cccc2ccccc12)C(=O)O; mXylylene = c1cc(C[*:1])cc(C[*:2])c1; Hexanoyl = CCCCCC(=O)*

How the values were obtained:
[1] = target: T1, FAP-expressing human WI-38 fibroblasts (Homo sapiens, UniProt Q12884); assay: Competitive FACS binding assay
T1 construct: FAP-expressing human WI-38 fibroblasts (ECACC) were cultured in EMEM; host or cells: WI-38 human fibroblasts
Procedure: Cells were analyzed in an Attune NxT flow cytometer. […] […].
Cells were analyzed in an Attune NxT flow cytometer. […]

Human recombinant FAP [2] = target: T2, Human recombinant FAP (Homo sapiens, UniProt Q12884); assay: FRET-based FAP protease activity assay; format: biochemical; parameters: purchased R&D systems 3715-SE; settings: pIC50 Category (Activity), 37° C.
Human recombinant FAP [3] = target: T2, Human recombinant FAP; assay: Surface plasmon resonance (Biacore) assay; format: binding; settings: for pKD Category: Biacore assay
[4] = FRET-based FAP protease activity assay, recombinant human FAP

T1 sequence (Q12884 whole entry): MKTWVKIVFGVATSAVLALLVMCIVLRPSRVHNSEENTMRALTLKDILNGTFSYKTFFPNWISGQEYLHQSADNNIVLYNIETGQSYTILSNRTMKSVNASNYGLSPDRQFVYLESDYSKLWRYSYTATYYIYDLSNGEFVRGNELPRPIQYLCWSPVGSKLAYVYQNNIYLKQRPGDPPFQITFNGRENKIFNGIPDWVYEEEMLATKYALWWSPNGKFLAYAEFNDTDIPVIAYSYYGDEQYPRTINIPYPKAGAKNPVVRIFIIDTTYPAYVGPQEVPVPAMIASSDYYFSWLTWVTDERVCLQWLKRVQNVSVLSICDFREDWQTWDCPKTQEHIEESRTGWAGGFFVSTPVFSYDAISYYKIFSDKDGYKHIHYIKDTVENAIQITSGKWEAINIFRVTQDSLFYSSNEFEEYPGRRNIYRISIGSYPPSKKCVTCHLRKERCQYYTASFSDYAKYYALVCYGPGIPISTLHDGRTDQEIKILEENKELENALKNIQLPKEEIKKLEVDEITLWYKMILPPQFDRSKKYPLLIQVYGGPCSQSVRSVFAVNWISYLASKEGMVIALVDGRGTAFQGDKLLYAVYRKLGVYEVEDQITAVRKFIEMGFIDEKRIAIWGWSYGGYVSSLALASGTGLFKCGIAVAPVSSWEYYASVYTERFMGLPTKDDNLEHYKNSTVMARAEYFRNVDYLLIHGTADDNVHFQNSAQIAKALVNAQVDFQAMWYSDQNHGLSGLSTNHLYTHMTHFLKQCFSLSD
T2 sequence (Q12884 whole entry): as above

Compound	IC50 [1] [nM]	IC50 (Human recombinant FAP [2]; FRET-peptide substrate) [nM]	Kd (Human recombinant FAP [3]) [nM]	pKD Category (Human recombinant FAP [3])	IC50 (Human recombinant FAP [2]; [4]) [nM]
CCCCNC(=O)N[C@H]1CSCc2cc(cc(CN3CCN(C(=O)CN4CCN(CC(=O)O)CCN(CC(=O)O)CCN(CC(=O)O)CC4)CC3)c2)CSC[C@@H](C(N)=O)NC(=O)[C@H](Cc2ccccc2)NC(=O)[C@H](CCC(N)=O)NC(=O)[C@H]([C@@H](C)O)NC(=O)[C@@H]2CCCN2C(=O)[C@@H]2CCCN2C1=O [3BP-4565, nBu-CAyl-[Cys(tMeBn(DOTA-PP))-Pro-Pro-Thr-Gln-Phe-Cys]-NH2]	< 10	< 10	< 10	–	–
CCCCCC(=O)N[C@H]1CSCc2cc(CSCCNC(=O)COCCOCCNC(=O)CCC(C(=O)O)N3CCN(CC(=O)O)CCN(CC(=O)O)CC3)cc(c2)CSC[C@@H](C(=O)O)NC(=O)[C@H](Cc2ccccc2)NC(=O)[C@H](CCC(N)=O)NC(=O)[C@H]([C@@H](C)O)NC(=O)[C@@H]2CCCN2C(=O)[C@@H]2CCCN2C1=O (stereo partly drawn) [3BP-4251, Hex-[Cys-(tMeBn(NODAGA-O2Oc-AET))-Pro-Pro-Thr-Gln-Phe-Cys]-OH]	< 10	< 10	< 10	–	–
CCCCC(=O)N[C@H]1CSCc2cc(CSCCNC(=O)CN3CCN(CC(=O)O)CCN(CC(=O)O)CCN(CC(=O)O)CC3)cc(c2)CSC[C@@H](C(=O)O)NC(=O)[C@H](Cc2ccccc2)NC(=O)[C@H](CCC(N)=O)NC(=O)[C@H]([C@@H](C)O)NC(=O)[C@@H]2CCCN2C(=O)[C@@H]2CCCN2C1=O [3BP-3910, Pent-[Cys(tMeBn(DOTA-AET))-Pro-Pro-Thr-Gln-Phe-Cys]-OH]	< 10	< 10	< 10	A (Category A stands for pKD values >8.0)	–
CCCCCC(=O)N[C@H]1CSCc2cc(CSCCNC(=O)CN3CCN(CC(=O)O)CCN(CC(=O)O)CCN(CC(=O)O)CC3)cc(c2)CSC[C@@H](C(N)=O)NC(=O)[C@H](Cc2ccccc2)NC(=O)[C@H](CCC(N)=O)NC(=O)[C@H]([C@@H](C)O)NC(=O)[C@@H]2CCCN2C(=O)[C@@H]2CCCN2C1=O [3BP-3652, Hex-[Cys(tMeBn(DOTA-AET))-Pro-Pro-Thr-Gln-Phe-Cys]-NH2]	< 10	–	< 10	–	< 10
CCCCCC(=O)N[C@H]1CSCc2cc(CSCCNC(=O)CN3CCN(CC(=O)O)CCN(CC(=O)O)CCN(CC(=O)O)CC3)cc(c2)CSC[C@@H](C(=O)NCCCC(=O)O)NC(=O)[C@H](Cc2ccccc2)NC(=O)[C@H](CCC(N)=O)NC(=O)[C@H]([C@@H](C)O)NC(=O)[C@@H]2CCCN2C(=O)[C@@H]2CCCN2C1=O [3BP-3657, Hex-[Cys(tMeBn(DOTA-AET))-Pro-Pro-Thr-Gln-Phe-Cys]-Gab-OH]	< 10	–	< 10	–	< 10
CCCCCC(=O)N[C@H]1CSCc2cccc(c2)CSC[C@@H](C(=O)N[C@@H](CC(=O)O)C(=O)NCCCOCCOCCOCCCNC(=O)CCC(=O)N[C@@H](CCCCNC(=O)CN2CCN(CC(=O)O)CCN(CC(=O)O)CCN(CC(=O)O)CC2)C(N)=O)NC(=O)[C@H](Cc2ccccc2)NC(=O)[C@H](CCC(=O)O)NC(=O)[C@H]([C@@H](C)O)NC(=O)[C@@H]2CCCN2C(=O)[C@@H]2CCCN2C1=O [3BP-3396, Hex-[Cys(3MeBn)-Pro-Pro-Thr-Glu-Phe-Cys]-Asp-Ttds-Lys(DOTA)-NH2] (Hexanoyl-CPPTEFCD-X17; linker 1-7 via mXylylene)	< 10	–	< 10	–	< 10
CCOCCC(=O)N[C@H]1CSCc2cc(CSCCNC(=O)CN3CCN(CC(=O)O)CCN(CC(=O)O)CCN(CC(=O)O)CC3)cc(c2)CSC[C@@H](C(=O)O)NC(=O)[C@H](Cc2ccccc2)NC(=O)[C@H](CCC(N)=O)NC(=O)[C@H]([C@@H](C)O)NC(=O)[C@@H]2CCCN2C(=O)[C@@H]2CCCN2C1=O [3BP-3918, EtOPr-[Cys(tMeBn(DOTA-AET))-Pro-Pro-Thr-Gln-Phe-Cys]-OH]	< 10	< 10	< 10	A (Category A stands for pKD values >8.0)	–
CCCCCC(=O)N[C@H]1CSCc2cc(CSCCNC(=O)CN3CCN(CC(=O)O)CCN(CC(=O)O)CCN(CC(=O)O)CC3)cc(c2)CSC[C@@H](C(=O)NCC(=O)O)NC(=O)[C@H](Cc2ccccc2)NC(=O)[C@H](CCC(N)=O)NC(=O)[C@H]([C@@H](C)O)NC(=O)[C@@H]2CCCN2C(=O)[C@@H]2CCCN2C1=O [3BP-3656, Hex-[Cys(tMeBn(DOTA-AET))-Pro-Pro-Thr-Gln-Phe-Cys]-Gly-OH] (Hexanoyl-CPPTQFCG-OH; linker 1-7 via TBMB(SCH2CH2NH-DOTA))	< 10	–	< 10	–	< 10
CCCCCC(=O)N[C@H]1CSCc2cc(CSCCNC(=O)CN3CCN(CC(=O)O)CCN(CC(=O)O)CCN(CC(=O)O)CC3)cc(c2)CSC[C@@H](C(=O)O)NC(=O)[C@H](Cc2cccc3ccccc23)NC(=O)[C@H](CCC(N)=O)NC(=O)[C@H]([C@@H](C)O)NC(=O)[C@@H]2CCCN2C(=O)[C@@H]2CCCN2C1=O [3BP-3650, Hex-[Cys(tMeBn(DOTA-AET))-Pro-Pro-Thr-Gln-1Ni-Cys]-OH] (Hexanoyl-CPPTQ[1Nal]C-OH; linker 1-7 via TBMB(SCH2CH2NH-DOTA))	< 10	–	< 10	–	< 10
CCCC[C@H](NC(=O)CCC(=O)NCCCOCCOCCOCCCNC(=O)[C@H](CCC(=O)NC[C@H](O)[C@@H](O)[C@H](O)[C@H](O)CO)NC(=O)C(CNCCN)CNCCN)C(=O)N[C@H]1CSCc2cccc(c2)CSC[C@@H](C(=O)O)NC(=O)[C@H](Cc2ccccc2)NC(=O)[C@H](CCC(N)=O)NC(=O)[C@H]([C@@H](C)O)NC(=O)[C@@H]2CCCN2C(=O)[C@@H]2CCCN2C1=O [3BP-4246, N4Ac-Glu(AGLU)-Ttds-Nle-[Cys-(3MeBn)-Pro-Pro-Thr-Gln-Phe-Cys]-OH]	10 to 79.4	10 to 79.4	< 10	–	–
CCCCCC(=O)N[C@H]1CSCc2cc(CSCCNC(=O)CN3CCN(CC(=O)O)CCN(CC(=O)O)CCN(CC(=O)O)CC3)cc(c2)CSC[C@@H](C(=O)N[C@@H](CO)C(=O)O)NC(=O)[C@H](Cc2ccccc2)NC(=O)[C@H](CCC(N)=O)NC(=O)[C@H]([C@@H](C)O)NC(=O)[C@@H]2CCCN2C(=O)[C@@H]2CCCN2C1=O [3BP-3658, Hex-[Cys(tMeBn(DOTA-AET))-Pro-Pro-Thr-Gln-Phe-Cys]-Ser-OH] (Hexanoyl-CPPTQFCS-OH; linker 1-7 via TBMB(SCH2CH2NH-DOTA))	< 10	–	< 10	–	< 10
CCCCCC(=O)N[C@H]1CSCc2cc(CSCCNC(=O)CN3CCN(CC(=O)O)CCN(CC(=O)O)CCN(CC(=O)O)CC3)cc(c2)CSC[C@@H](C(=O)N[C@H](CC(=O)O)Cc2ccccc2)NC(=O)[C@H](Cc2ccccc2)NC(=O)[C@H](CCC(N)=O)NC(=O)[C@H]([C@@H](C)O)NC(=O)[C@@H]2CCCN2C(=O)[C@@H]2CCCN2C1=O [3BP-3660, Hex-[Cys(tMeBn(DOTA-AET))-Pro-Pro-Thr-Gin-Phe-Cys]-Bhf-OH]	< 10	–	< 10	–	< 10
